Test results taken from patent US7326708B2, “Phosphoric acid salt of a dipeptidyl peptidase-IV inhibitor” (Merck & Co., Inc., priority 2003, dated 2008).

Legend:
solubility in water = type: physicochemical
[1] = physical (crystal form) stability of the solid; type: physicochemical; settings: for stability of the crystal form: ambient condition

solubility in water (in words) (solubility in water) | stability of the crystal form [1] | crystal form change on heating ([1]; heated to above 40° C. under very dry nitrogen flow) | solubility (solubility in water) [mg/mL] | SMILES
high solubility in water |  |  |  | NC(CC(=O)N1CCn2c(nnc2C(F)(F)F)C1)Cc1cc(F)c(F)cc1F (stereo not drawn) [4-oxo-4-[3-(trifluoromethyl)-5,6-dihydro[1 ,2,4]triazolo[4,3-a]pyrazin-7(8H)-yl]-1-(2,4,5-trifluorophenyl) butan-2-amine]
high solubility in water | stable under ambient condition | convert to dehydrated monohydrate | ~72 | N[C@@H](CC(=O)N1CCn2c(nnc2C(F)(F)F)C1)Cc1cc(F)c(F)cc1F [(2R)-4-oxo-4-[3-(trifluoromethyl)-5,6-dihydro[1,2,4]triazolo[4,3-a]pyrazin-7(8H)-yl]-1-(2,4,5-trifluorophenyl)butan-2-amine dihydrogenphosphate monohydrate]
 | converted back to monohydrate |  |  | N[C@@H](CC(=O)N1CCn2c(nnc2C(F)(F)F)C1)Cc1cc(F)c(F)cc1F.O=P(O)(O)O [Dehydrated monohydrate]
